What was measured:
Assay type in all cases: cell-based
M3 receptor [1] = biological target: T1, M3 receptor (Cavia porcellus, UniProt H0W1Z3); experiment: Functional tissue assay, M3 guinea-pig ileum (antagonist pA2); conditions: guinea-pig ileum, isometric contraction; antagonist pA2 per method; mean ± spread (n pts)
T1 construct: Sections (2 cm) are cut from the ileum of the killed guinea-pigs; from tissue; host or cells: guinea-pig ileum
Excerpt: (§1) Functional Assays of M1, M2 and M3 Receptor Activity
(§2) Initial evaluation of test compounds is by assay of functional tissue responses. This has the advantage that it readily discriminates between agonist partial agonist and antagonist activity
(§3) Sections (2 cm) are cut from the ileum of the killed guinea-pigs, 10 cm from the ileo-caecal junction. One end is attached to a tissue holder/aerator and the other end via a cotton thread to an isometric transducer. The tissue is immersed in gassed normal Ca^2+ Krebs solution at 32±0.5° C. A resting tension of 0.5 g is applied and isometric contractions measured by computer or polygraph.
(§4) Following at least 30 min equilibration to allow twitches or tension to stabilize, cumulative concentration-response curves for the muscarinic agonists are constructed. The concentration is increased in half logarithmic increments after the contraction in the presence of each concentration has plateaued Steady-state contractions at each concentration are measured and the inhibition expressed as a percentage of the baseline twitch height in atria and vas deferens or as the maxi contraction in the ileum. EC50 values for the muscarinic agonists are determined from individual curves as the molar concentration required for 50% inhibition of twitch height or the 50% of maximum contraction (ileum). Geometric mean EC50 values and their 95% confidence limits are calculated.
(§5) A concentration-response curve to the test agonist is established in the absence of antagonist and after achieving the maximum effect, the agonist washed from the bath to restore twitch contractions. Three further concentration-response curves are then obtained in the same manner at approximately 30 min intervals, with the antagonist (Standards—pirenzepine M1, darifenacin M3, methoctramine M2) being introduced to the bath 15 min before each of these subsequent curves.
(§6) Concentration-response curves in the absence and presence of antagonist are measured as described for the agonist studies. The shifts in the concentration-response curves in the presence of antagonist compared with the absence of antagonist are expressed as the dose-ratios (DR) of the EC50 values. pA2 values are then determined from Schild analysis of plots of the mean corrected […] against log molar concentration of antagonist. The slopes of the Schild plots are determined by linear regression and the pA2 values determined from the intercept on the concentration axis (when log(DR−1) is zero). pA2 values are also determined from individual concentrations of antagonist by applying the equations: pA2=log(DR−1) log[B], wherein B is the molar concentration of antagonist.

M3 receptor [2] = experiment: as above; conditions: ileum versus atria, log10 units
Excerpt: as §1, §2, §3, §4, §5, §6

M2 receptor = biological target: T2, M2 receptor (Cavia porcellus, UniProt H0VRN8); experiment: Functional tissue assay, M2 guinea-pig atria (antagonist pA2); conditions: guinea-pig left atria, paced; antagonist pA2 per method; mean ± spread (n pts)
T2 construct: from tissue; host or cells: guinea-pig left atrium
T2 sequence (H0VRN8 1-466): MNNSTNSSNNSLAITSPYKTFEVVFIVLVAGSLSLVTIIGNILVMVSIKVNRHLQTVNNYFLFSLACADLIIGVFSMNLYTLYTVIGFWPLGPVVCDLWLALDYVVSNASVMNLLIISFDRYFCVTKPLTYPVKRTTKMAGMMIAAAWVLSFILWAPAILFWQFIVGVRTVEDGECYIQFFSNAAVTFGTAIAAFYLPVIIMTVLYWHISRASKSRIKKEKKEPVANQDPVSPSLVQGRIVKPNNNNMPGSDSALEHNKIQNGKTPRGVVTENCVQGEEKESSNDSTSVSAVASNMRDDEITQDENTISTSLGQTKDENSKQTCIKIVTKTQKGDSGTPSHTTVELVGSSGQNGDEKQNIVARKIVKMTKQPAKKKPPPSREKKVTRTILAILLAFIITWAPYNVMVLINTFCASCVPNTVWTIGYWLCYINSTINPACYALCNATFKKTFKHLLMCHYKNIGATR
Excerpt: as §1, §2
Guinea-pigs are killed by a blow to the back of the head and left atrium removed. The atrium is secured to a pari of stainless steel electrodes by means of a cotton thread and immersed in the organ bath containing gassed Krebs solution with normal Ca^2 + at 32±0.50C. Atria are placed at 2 Hz with square-wave pulses of 0.5 ms pulse width. Isometric contractions are recorded by computer or polygraph.
Following at least 30 min equilibration to allow twitches or tension to stabilize, cumulative concentration-response curves for the muscarinic agonists are constructed. The concentration is increased in half logarithmic increments after the contraction in the presence of each concentration has plateaued Steady-state contractions at each concentration are measured and the inhibition expressed as a percentage of the baseline twitch height in atria and vas deferens or as the maxi contraction in the ileum. […]
Concentration-response curves in the absence and presence of antagonist are measured as described for the agonist studies. […]

T1 sequence (H0W1Z3 1-590): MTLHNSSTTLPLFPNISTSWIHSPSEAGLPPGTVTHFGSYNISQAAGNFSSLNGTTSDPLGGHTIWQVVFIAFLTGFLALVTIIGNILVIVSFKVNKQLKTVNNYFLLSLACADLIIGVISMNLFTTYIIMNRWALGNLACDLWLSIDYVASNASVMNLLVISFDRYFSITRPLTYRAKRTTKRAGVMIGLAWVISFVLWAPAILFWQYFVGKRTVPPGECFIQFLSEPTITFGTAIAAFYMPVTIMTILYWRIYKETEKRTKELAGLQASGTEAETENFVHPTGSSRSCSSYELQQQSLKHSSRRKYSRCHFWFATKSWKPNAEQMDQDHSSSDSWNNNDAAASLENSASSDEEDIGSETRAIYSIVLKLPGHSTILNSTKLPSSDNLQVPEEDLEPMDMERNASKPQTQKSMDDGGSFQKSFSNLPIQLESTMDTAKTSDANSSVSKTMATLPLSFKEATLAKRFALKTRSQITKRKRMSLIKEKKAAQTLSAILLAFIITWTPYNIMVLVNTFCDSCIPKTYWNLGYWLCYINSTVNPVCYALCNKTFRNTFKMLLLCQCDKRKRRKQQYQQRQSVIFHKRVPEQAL

Structure (SMILES) | M3 (ileum) (M3 receptor [1]) | Log10 selectivity (M3 receptor [2]) | M2 antagonist pA2 (atria) (M2 receptor)
O=C1CN(CCNCc2ccccc2)Cc2ccccc2[C@]1(O)C1CCC1 (stereo in doubt) [Compound 19, 2-[2-(benzylamino)ethyl]-5-cyclobutyl-5-hydroxy-1,3,4,5-tetrahydrobenzo[c]azepin-4-one] | 6.5 ± 0.4 (3 pts) | 1.6 ± 0.7 | 4.9 ± 0.6 (4 pts)
O=C1CN(CCCNCc2ccccc2)Cc2ccccc2[C@]1(O)C1CCC1 (stereo in doubt) [Compound 22, 2-[3-(Benzylamino)propyl]-5-cyclobutyl-5-hydroxy-1,2,3,5-tetrahydrobenzo[c]azepin-4-one] | 6.7 ± 0.4 (4 pts) | 1.5 ± 0.5 | 5.2 ± 0.3 (4 pts)

Reference: patent US20030199494A1, “1,2,3,5-tetrahydrobenzo'c!azepin-4-one derivatives having muscarinic antagonist activity” (priority 2000, published 2003)
